Measurements as given in patent publication US11065286B2 (priority 2016, dated 2021).

What was measured:
[1] = test system: Renca, MC38, and 4T1 cell lines; type: cell-based, mouse
MDA-MB-231 cells = type: cell-based

Compound	viral gene expression with HMGB1mut expression in presence of inhibitor [1]	vaccinia replication (MDA-MB-231 cells)
Bafilomycin A1	loss of the increased viral gene expression	–
C/C=C/C/C=C/CCC(=O)[C@H]1O[C@H]1C(N)=O [cerulenin]	–	significantly reduced vaccinia replication
